Data reported in ChEMBL document CHEMBL5376026, “Design, synthesis, and antiproliferative evaluation of novel dehydroabietic acid-1,2,3-triazole-oxazolidinone hybrids” (RSC Med Chem, 2024).
The source made the active and inactive calls. The calls are words filed in the database; no cut-off is given here.

How the values were obtained:
MGC-803 [1] = experiment: Induction of apoptosis in human MGC-803 cells assessed as necrotic cells at 5 uM incubated for 48 hrs by Annexin-V FITC and PI staining based flow cytometry (reference value: 0.68%); type: functional
MGC-803 [2] = experiment: Induction of cell cycle arrest in human MGC-803 cells assessed as accumulation of cells at G2/M phase at 10 uM incubated for 48 hrs by propidium iodide staining based flow cytometry (reference value: 16.81%); type: functional
MGC-803 [3] = experiment: Induction of apoptosis in human MGC-803 cells assessed as late apoptotic cells at 5 uM incubated for 48 hrs by Annexin-V FITC and PI staining based flow cytometry (reference value: 0.81%); type: functional
MGC-803 [4] = experiment: Induction of apoptosis in human MGC-803 cells assessed as early apoptotic cells at 10 uM incubated for 48 hrs by Annexin-V FITC and PI staining based flow cytometry (reference value: 0.20%); type: functional
MGC-803 [5] = experiment: Induction of apoptosis in human MGC-803 cells assessed as apoptosis rate at 10 uM incubated for 48 hrs by Annexin-V FITC and PI staining based flow cytometry (reference value: 0.42%); type: functional
MGC-803 [6] = experiment: Induction of apoptosis in human MGC-803 cells assessed as chromatin condensation incubated for 48 hrs by Hoechst 33258 staining based fluorescence microscopic analysis; type: functional, cell-based; details: dose 2.5-10 µM
MGC-803 [7] = experiment: Induction of apoptosis in human MGC-803 cells assessed as apoptosis rate at 5 uM incubated for 48 hrs by Annexin-V FITC and PI staining based flow cytometry (reference value: 0.42%); type: functional
HeLa = experiment: Anticancer activity against human HeLa cells assessed as inhibition of cell growth incubated for 48 hrs by MTT assay; type: functional, cell-based
MGC-803 [8] = experiment: Induction of apoptosis in human MGC-803 cells assessed as early apoptotic cells at 5 uM incubated for 48 hrs by Annexin-V FITC and PI staining based flow cytometry (reference value: 0.20%); type: functional
MGC-803 [9] = experiment: Induction of apoptosis in human MGC-803 cells assessed as viable cells at 2.5 uM incubated for 48 hrs by Annexin-V FITC and PI staining based flow cytometry (reference value: 98.3%); type: functional; details: read-out: Activity
MGC-803 [10] = experiment: Induction of apoptosis in human MGC-803 cells assessed as early apoptotic cells at 2.5 uM incubated for 48 hrs by Annexin-V FITC and PI staining based flow cytometry (reference value: 0.20%); type: functional
MGC-803 [11] = experiment: Induction of cell cycle arrest in human MGC-803 cells assessed as accumulation of cells at G0/G1 phase at 5 uM incubated for 48 hrs by propidium iodide staining based flow cytometry (reference value: 50.67%); type: functional
MGC-803 [12] = experiment: Induction of apoptosis in human MGC-803 cells assessed as viable cells at 5 uM incubated for 48 hrs by Annexin-V FITC and PI staining based flow cytometry (reference value: 98.3%); type: functional; details: read-out: Activity
[13] = Cytotoxicity against human LO2 cells assessed as reduction in cell viability incubated for 48 hrs by MTT assay; type: toxicity, cell-based, L02
MGC-803 [14] = experiment: Induction of apoptosis in human MGC-803 cells assessed as late apoptotic cells at 2.5 uM incubated for 48 hrs by Annexin-V FITC and PI staining based flow cytometry (reference value: 0.81%); type: functional
MGC-803 [15] = experiment: Induction of cell cycle arrest in human MGC-803 cells assessed as accumulation of cells at G0/G1 phase at 2.5 uM incubated for 48 hrs by propidium iodide staining based flow cytometry (reference value: 50.67%); type: functional
MGC-803 [16] = experiment: Induction of reactive oxygen species generation in human MGC-803 cells at 2.5 to 10 uM incubated for 48 hrs by DCFH-DA staining based fluorescence microscopic analysis; type: functional, cell-based; details: dose 2.5-10 µM
MGC-803 [17] = experiment: Induction of apoptosis in human MGC-803 cells assessed as late apoptotic cells at 10 uM incubated for 48 hrs by Annexin-V FITC and PI staining based flow cytometry (reference value: 0.81%); type: functional
MGC-803 [18] = experiment: Induction of apoptosis in human MGC-803 cells assessed as necrotic cells at 10 uM incubated for 48 hrs by Annexin-V FITC and PI staining based flow cytometry (reference value: 0.68%); type: functional
MGC-803 [19] = experiment: Induction of cell cycle arrest in human MGC-803 cells assessed as accumulation of cells at G0/G1 phase at 10 uM incubated for 48 hrs by propidium iodide staining based flow cytometry (reference value: 50.67%); type: functional
MGC-803 [20] = experiment: Anticancer activity against human MGC-803 cells assessed as inhibition of cell growth incubated for 48 hrs by MTT assay; type: functional, cell-based; details: MGC-803, 48 h
MGC-803 [21] = experiment: Induction of mitochondrial membrane potential loss in human MGC-803 cells at 2.5 uM incubated for 10 to 24 hrs by JC-1 staining based fluorescence microscopic assay; type: functional, cell-based; details: time 10-24 hrs
MGC-803 [22] = experiment: Induction of cell cycle arrest in human MGC-803 cells assessed as accumulation of cells at G2/M phase at 2.5 uM incubated for 48 hrs by propidium iodide staining based flow cytometry (reference value: 16.81%); type: functional
MGC-803 [23] = experiment: Induction of cell cycle arrest in human MGC-803 cells assessed as accumulation of cells at S phase at 10 uM incubated for 48 hrs by propidium iodide staining based flow cytometry (reference value: 33.22%); type: functional
MGC-803 [24] = experiment: Induction of apoptosis in human MGC-803 cells assessed as viable cells at 10 uM incubated for 48 hrs by Annexin-V FITC and PI staining based flow cytometry (reference value: 98.3%); type: functional; details: read-out: Activity
MGC-803 [25] = experiment: Induction of apoptosis in human MGC-803 cells assessed as increase in apoptotic nuclei incubated for 48 hrs by Hoechst 33258 staining based fluorescence microscopic analysis; type: functional, cell-based; details: dose 2.5-10 µM
MGC-803 [26] = experiment: Induction of cell cycle arrest in human MGC-803 cells assessed as accumulation of cells at S phase at 5 uM incubated for 48 hrs by propidium iodide staining based flow cytometry (reference value: 33.22%); type: functional
MGC-803 [27] = experiment: Induction of apoptosis in human MGC-803 cells assessed as apoptosis rate at 2.5 uM incubated for 48 hrs by Annexin-V FITC and PI staining based flow cytometry (reference value: 0.42%); type: functional
MGC-803 [28] = experiment: Induction of cell cycle arrest in human MGC-803 cells assessed as accumulation of cells at S phase at 2.5 uM incubated for 48 hrs by propidium iodide staining based flow cytometry (reference value: 33.22%); type: functional
T-24 = experiment: Anticancer activity against human T-24 cells assessed as inhibition of cell growth incubated for 48 hrs by MTT assay; type: functional, cell-based; details: T-24, 48 h
MGC-803 [29] = experiment: Induction of apoptosis in human MGC-803 cells assessed as necrotic cells at 2.5 uM incubated for 48 hrs by Annexin-V FITC and PI staining based flow cytometry (reference value: 0.68%); type: functional
HepG2 = experiment: Anticancer activity against human HepG2 cells assessed as inhibition of cell growth incubated for 48 hrs by MTT assay; type: functional, cell-based; details: HepG2, 48 h
MGC-803 [30] = experiment: Induction of cell cycle arrest in human MGC-803 cells assessed as accumulation of cells at G2/M phase at 5 uM incubated for 48 hrs by propidium iodide staining based flow cytometry (reference value: 16.81%); type: functional

Molecule `CC(C)c1ccc2c(c1)CC[C@H]1[C@](C)(C(=O)OCc3cn(CC4CN(c5ccc(Br)cc5)C(=O)O4)nn3)CCC[C@]21C` (stereo partly drawn) has an Activity (MGC-803 [1]) of 2.9%, an Activity (MGC-803 [2]) of 11.23% and an Activity (MGC-803 [3]) of 12%. For the same molecule, the Activity (MGC-803 [4]) was 82.1%, the Activity (MGC-803 [5]) was 33.34% and the Activity (MGC-803 [6]) was “Dose-Dependent Effect”. For the same molecule, the Activity (MGC-803 [7]) was 8.87%, the IC50 (HeLa) was 25.3 µM and the Activity (MGC-803 [8]) was 16.2%. For the same molecule, the viability at 2.5 µM (MGC-803 [9]) was 87.5%, the Activity (MGC-803 [10]) was 4.89% and the Activity (MGC-803 [11]) was 54.14%. It also gave a viability at 5 µM (MGC-803 [12]) of 68.8%, an IC50 at 48 h [13] of 40 µM and an Activity (MGC-803 [14]) of 6.25%. For the same molecule, the Activity (MGC-803 [15]) was 52.14%, the Activity (MGC-803 [16]) was “Active” and the Activity (MGC-803 [17]) was 2.64%. The Activity (MGC-803 [18]) was 1.25%, the Activity (MGC-803 [19]) was 55.64% and the IC50 (MGC-803 [20]) was 3.18 µM. For the same molecule, the Activity (MGC-803 [21]) was “Active”, the Activity (MGC-803 [22]) was 13.7% and the Activity (MGC-803 [23]) was 33.22%. For the same molecule, the viability at 10 µM (MGC-803 [24]) was 14%, the Activity (MGC-803 [25]) was “Dose-Dependent Effect” and the Activity (MGC-803 [26]) was 33.63%. The Activity (MGC-803 [27]) was 6%, the Activity (MGC-803 [28]) was 34.79% and the IC50 (T-24) was 14.2 µM. For the same molecule, the Activity (MGC-803 [29]) was 1.32%, the IC50 (HepG2) was 11.7 µM and the Activity (MGC-803 [30]) was 12.52%.
